Measurements reported in ChEMBL document CHEMBL1909294, “Translating clinical findings into knowledge in drug safety evaluation--drug induced liver injury prediction system (DILIps)” (PLoS Comput Biol, 2011).

Experiments:
Hepatotoxicity [1] = test system: Hepatotoxicity;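 as to HepSE bilirubinemia: bilirubinemia hepatic side effect score drawn from the DILIps training data, a prediction system for drug-induced liver injury; call rule not given here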;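 as to HepSE cholecystitis: Cholecystitis-related hepatic side effect score drawn from the DILIps (drug-induced liver injury prediction) training data set; call rule not given here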;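 as to HepSE cholelithiasis: hepatic side effect score for cholelithiasis, drawn from the DILIps training data for predicting drug-induced liver injury; call rule not given here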;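 as to HepSE cirrhosis: cirrhosis hepatic side effect score taken from the DILIps (drug-induced liver injury prediction) training set; call rule not given here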;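 as to HepSE elevated liver function tests: hepatic side effect score for raised liver function tests, as recorded in the DILIps training set used for predicting drug-induced liver injury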; as to HepSE hepatic failure: call rule not given here;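 as to HepSE hepatomegaly: hepatic side effect score for hepatomegaly, taken from the training set of the DILIps drug-induced liver injury prediction system; call rule not given here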
Hepatotoxicity [2] = test system: Hepatotoxicity; remark: listed apart in the source;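 as to HepSE bilirubinemia: bilirubinemia hepatic side effect score drawn from the DILIps training data, a prediction system for drug-induced liver injury; call rule not given here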;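 as to HepSE cholecystitis: Cholecystitis-related hepatic side effect score drawn from the DILIps (drug-induced liver injury prediction) training data set; call rule not given here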;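 as to HepSE cholelithiasis: hepatic side effect score for cholelithiasis, drawn from the DILIps training data for predicting drug-induced liver injury; call rule not given here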;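 as to HepSE cirrhosis: cirrhosis hepatic side effect score taken from the DILIps (drug-induced liver injury prediction) training set; call rule not given here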;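 as to HepSE elevated liver function tests: hepatic side effect score for raised liver function tests, as recorded in the DILIps training set used for predicting drug-induced liver injury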; as to HepSE hepatic failure: call rule not given here
Hepatotoxicity [3] = test system: Hepatotoxicity; remark: listed apart in the source;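 as to HepSE bilirubinemia: bilirubinemia hepatic side effect score drawn from the DILIps training data, a prediction system for drug-induced liver injury; call rule not given here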;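 as to HepSE cholecystitis: Cholecystitis-related hepatic side effect score drawn from the DILIps (drug-induced liver injury prediction) training data set; call rule not given here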;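 as to HepSE cholelithiasis: hepatic side effect score for cholelithiasis, drawn from the DILIps training data for predicting drug-induced liver injury; call rule not given here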;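 as to HepSE cirrhosis: cirrhosis hepatic side effect score taken from the DILIps (drug-induced liver injury prediction) training set; call rule not given here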;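 as to HepSE elevated liver function tests: hepatic side effect score for raised liver function tests, as recorded in the DILIps training set used for predicting drug-induced liver injury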; as to HepSE hepatic failure: call rule not given here
Hepatotoxicity [4] = test system: Hepatotoxicity; remark: listed apart in the source;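 as to HepSE bilirubinemia: bilirubinemia hepatic side effect score drawn from the DILIps training data, a prediction system for drug-induced liver injury; call rule not given here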;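 as to HepSE cholecystitis: Cholecystitis-related hepatic side effect score drawn from the DILIps (drug-induced liver injury prediction) training data set; call rule not given here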;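 as to HepSE cholelithiasis: hepatic side effect score for cholelithiasis, drawn from the DILIps training data for predicting drug-induced liver injury; call rule not given here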;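 as to HepSE cirrhosis: cirrhosis hepatic side effect score taken from the DILIps (drug-induced liver injury prediction) training set; call rule not given here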;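 as to HepSE elevated liver function tests: hepatic side effect score for raised liver function tests, as recorded in the DILIps training set used for predicting drug-induced liver injury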; as to HepSE hepatic failure: call rule not given here
Hepatotoxicity [5] = test system: Hepatotoxicity; remark: listed apart in the source; as to HepSE hepatic failure: call rule not given here
Hepatotoxicity [6] = test system: Hepatotoxicity; remark: listed apart in the source; as to HepSE hepatic failure: call rule not given here
Hepatotoxicity [7] = test system: Hepatotoxicity; remark: listed apart in the source
Hepatotoxicity [8] = test system: Hepatotoxicity; remark: listed apart in the source
Hepatotoxicity [9] = test system: Hepatotoxicity; remark: listed apart in the source
Hepatotoxicity [10] = test system: Hepatotoxicity; remark: listed apart in the source
Hepatotoxicity [11] = test system: Hepatotoxicity; remark: listed apart in the source
Hepatotoxicity [12] = test system: Hepatotoxicity; remark: listed apart in the source
Hepatotoxicity [13] = test system: Hepatotoxicity; remark: listed apart in the source
Hepatotoxicity [14] = test system: Hepatotoxicity; remark: listed apart in the source

CCCCC[C@H](O)/C=C/[C@H]1[C@H](O)CC(=O)[C@@H]1C/C=C\CCCC(=O)O [DINOPROSTONE]
0: HepSE_bilirubinemia (Hepatotoxicity [1]) | HepSE_cholecystitis (Hepatotoxicity [2]) | HepSE_cholelithiasis (Hepatotoxicity [3]) | HepSE_cirrhosis (Hepatotoxicity [4]) | HepSE_elevated liver function tests (Hepatotoxicity [5]) | HepSE_hepatic failure (Hepatotoxicity [6]) | HepSE_hepatic necrosis (Hepatotoxicity [7]) | HepSE_hepatitis (Hepatotoxicity [8]) | HepSE_hepatomegaly (Hepatotoxicity [9]) | HepSE_jaundice (Hepatotoxicity [10]) | HepSE_liver disease (Hepatotoxicity [11]) | HepSE_liver fatty (Hepatotoxicity [12]) | HepSE_liver function tests abnormal (Hepatotoxicity [13]) | HepSE_Combined Scores (Hepatotoxicity [14])

CO[C@H]1/C=C/O[C@@]2(C)Oc3c(C)c(O)c4c(O)c(c(/C=N/N5CCN(C6CCCC6)CC5)c(O)c4c3C2=O)NC(=O)/C(C)=C\C=C\[C@H](C)[C@H](O)[C@@H](C)[C@@H](O)[C@@H](C)[C@H](OC(C)=O)[C@@H]1C [RIFAPENTINE]
1: HepSE_bilirubinemia (Hepatotoxicity [1]) | HepSE_hepatitis (Hepatotoxicity [8])
2: HepSE_Combined Scores (Hepatotoxicity [14])
0: HepSE_cholecystitis (Hepatotoxicity [2]) | HepSE_cholelithiasis (Hepatotoxicity [3]) | HepSE_cirrhosis (Hepatotoxicity [4]) | HepSE_elevated liver function tests (Hepatotoxicity [5]) | HepSE_hepatic failure (Hepatotoxicity [6]) | HepSE_hepatic necrosis (Hepatotoxicity [7]) | HepSE_hepatomegaly (Hepatotoxicity [9]) | HepSE_jaundice (Hepatotoxicity [10]) | HepSE_liver disease (Hepatotoxicity [11]) | HepSE_liver fatty (Hepatotoxicity [12]) | HepSE_liver function tests abnormal (Hepatotoxicity [13])

COc1cc(NCc2ccc3nc(N)nc(N)c3c2C)cc(OC)c1OC [TRIMETREXATE]
0: HepSE_bilirubinemia (Hepatotoxicity [1]) | HepSE_cholecystitis (Hepatotoxicity [2]) | HepSE_cholelithiasis (Hepatotoxicity [3]) | HepSE_cirrhosis (Hepatotoxicity [4]) | HepSE_elevated liver function tests (Hepatotoxicity [5]) | HepSE_hepatic failure (Hepatotoxicity [6]) | HepSE_hepatic necrosis (Hepatotoxicity [7]) | HepSE_hepatitis (Hepatotoxicity [8]) | HepSE_hepatomegaly (Hepatotoxicity [9]) | HepSE_jaundice (Hepatotoxicity [10]) | HepSE_liver disease (Hepatotoxicity [11]) | HepSE_liver fatty (Hepatotoxicity [12]) | HepSE_liver function tests abnormal (Hepatotoxicity [13]) | HepSE_Combined Scores (Hepatotoxicity [14])

C[N+](C)(C)CCO.Cn1c(=O)c2[n-]cnc2n(C)c1=O [OXTRIPHYLLINE]
0: HepSE_bilirubinemia (Hepatotoxicity [1]) | HepSE_cholecystitis (Hepatotoxicity [2]) | HepSE_cholelithiasis (Hepatotoxicity [3]) | HepSE_cirrhosis (Hepatotoxicity [4]) | HepSE_elevated liver function tests (Hepatotoxicity [5]) | HepSE_hepatic failure (Hepatotoxicity [6]) | HepSE_hepatic necrosis (Hepatotoxicity [7]) | HepSE_hepatitis (Hepatotoxicity [8]) | HepSE_hepatomegaly (Hepatotoxicity [9]) | HepSE_jaundice (Hepatotoxicity [10]) | HepSE_liver disease (Hepatotoxicity [11]) | HepSE_liver fatty (Hepatotoxicity [12]) | HepSE_liver function tests abnormal (Hepatotoxicity [13]) | HepSE_Combined Scores (Hepatotoxicity [14])

NC(=O)C(c1ccccc1)(c1ccccc1)[C@@H]1CCN(CCc2ccc3c(c2)CCO3)C1 [DARIFENACIN]
0: HepSE_bilirubinemia (Hepatotoxicity [1]) | HepSE_cholecystitis (Hepatotoxicity [2]) | HepSE_cholelithiasis (Hepatotoxicity [3]) | HepSE_cirrhosis (Hepatotoxicity [4]) | HepSE_elevated liver function tests (Hepatotoxicity [5]) | HepSE_hepatic failure (Hepatotoxicity [6]) | HepSE_hepatic necrosis (Hepatotoxicity [7]) | HepSE_hepatitis (Hepatotoxicity [8]) | HepSE_hepatomegaly (Hepatotoxicity [9]) | HepSE_jaundice (Hepatotoxicity [10]) | HepSE_liver disease (Hepatotoxicity [11]) | HepSE_liver fatty (Hepatotoxicity [12]) | HepSE_liver function tests abnormal (Hepatotoxicity [13]) | HepSE_Combined Scores (Hepatotoxicity [14])

CC[C@]1(O)C[C@H]2CN(CCc3c([nH]c4ccccc34)[C@@](C(=O)OC)(c3cc4c(cc3OC)N(C=O)[C@H]3[C@@](O)(C(=O)OC)[C@H](OC(C)=O)[C@]5(CC)C=CCN6CC[C@]43[C@@H]65)C2)C1 [VINCRISTINE]
0: HepSE_bilirubinemia (Hepatotoxicity [1]) | HepSE_cholecystitis (Hepatotoxicity [2]) | HepSE_cholelithiasis (Hepatotoxicity [3]) | HepSE_cirrhosis (Hepatotoxicity [4]) | HepSE_elevated liver function tests (Hepatotoxicity [5]) | HepSE_hepatic failure (Hepatotoxicity [6]) | HepSE_hepatic necrosis (Hepatotoxicity [7]) | HepSE_hepatitis (Hepatotoxicity [8]) | HepSE_hepatomegaly (Hepatotoxicity [9]) | HepSE_jaundice (Hepatotoxicity [10]) | HepSE_liver disease (Hepatotoxicity [11]) | HepSE_liver fatty (Hepatotoxicity [12]) | HepSE_liver function tests abnormal (Hepatotoxicity [13]) | HepSE_Combined Scores (Hepatotoxicity [14])

CC(C)c1nc(N(C)S(C)(=O)=O)nc(-c2ccc(F)cc2)c1/C=C/[C@@H](O)C[C@@H](O)CC(=O)O [ROSUVASTATIN]
0: HepSE_bilirubinemia (Hepatotoxicity [1]) | HepSE_cholecystitis (Hepatotoxicity [2]) | HepSE_cholelithiasis (Hepatotoxicity [3]) | HepSE_cirrhosis (Hepatotoxicity [4]) | HepSE_elevated liver function tests (Hepatotoxicity [5]) | HepSE_hepatic failure (Hepatotoxicity [6]) | HepSE_hepatic necrosis (Hepatotoxicity [7]) | HepSE_hepatomegaly (Hepatotoxicity [9]) | HepSE_liver disease (Hepatotoxicity [11]) | HepSE_liver fatty (Hepatotoxicity [12]) | HepSE_liver function tests abnormal (Hepatotoxicity [13])
2: HepSE_Combined Scores (Hepatotoxicity [14])
1: HepSE_hepatitis (Hepatotoxicity [8]) | HepSE_jaundice (Hepatotoxicity [10])

C=C(CC)C(=O)c1ccc(OCC(=O)O)c(Cl)c1Cl [ETHACRYNIC ACID]
0: HepSE_bilirubinemia (Hepatotoxicity [1]) | HepSE_cholecystitis (Hepatotoxicity [2]) | HepSE_cholelithiasis (Hepatotoxicity [3]) | HepSE_cirrhosis (Hepatotoxicity [4]) | HepSE_elevated liver function tests (Hepatotoxicity [5]) | HepSE_hepatic failure (Hepatotoxicity [6]) | HepSE_hepatic necrosis (Hepatotoxicity [7]) | HepSE_hepatitis (Hepatotoxicity [8]) | HepSE_hepatomegaly (Hepatotoxicity [9]) | HepSE_liver disease (Hepatotoxicity [11]) | HepSE_liver fatty (Hepatotoxicity [12])
1: HepSE_jaundice (Hepatotoxicity [10]) | HepSE_liver function tests abnormal (Hepatotoxicity [13])
2: HepSE_Combined Scores (Hepatotoxicity [14])

CC1=C(/C=C/C(C)=C/C=C/C(C)=C/C(=O)O)C(C)(C)CCC1 [TRETINOIN]
0: HepSE_bilirubinemia (Hepatotoxicity [1]) | HepSE_cholecystitis (Hepatotoxicity [2]) | HepSE_cholelithiasis (Hepatotoxicity [3]) | HepSE_cirrhosis (Hepatotoxicity [4]) | HepSE_elevated liver function tests (Hepatotoxicity [5]) | HepSE_hepatic failure (Hepatotoxicity [6]) | HepSE_hepatic necrosis (Hepatotoxicity [7]) | HepSE_hepatomegaly (Hepatotoxicity [9]) | HepSE_jaundice (Hepatotoxicity [10]) | HepSE_liver fatty (Hepatotoxicity [12]) | HepSE_liver function tests abnormal (Hepatotoxicity [13])
2: HepSE_Combined Scores (Hepatotoxicity [14])
1: HepSE_hepatitis (Hepatotoxicity [8]) | HepSE_liver disease (Hepatotoxicity [11])

CN1CCC(=C2c3ccccc3CC(=O)c3sccc32)CC1 [KETOTIFEN]
1: HepSE_hepatitis (Hepatotoxicity [8]) | HepSE_Combined Scores (Hepatotoxicity [14])
0: HepSE_bilirubinemia (Hepatotoxicity [1]) | HepSE_cholecystitis (Hepatotoxicity [2]) | HepSE_cholelithiasis (Hepatotoxicity [3]) | HepSE_cirrhosis (Hepatotoxicity [4]) | HepSE_elevated liver function tests (Hepatotoxicity [5]) | HepSE_hepatic failure (Hepatotoxicity [6]) | HepSE_hepatic necrosis (Hepatotoxicity [7]) | HepSE_hepatomegaly (Hepatotoxicity [9]) | HepSE_jaundice (Hepatotoxicity [10]) | HepSE_liver disease (Hepatotoxicity [11]) | HepSE_liver fatty (Hepatotoxicity [12]) | HepSE_liver function tests abnormal (Hepatotoxicity [13])

NCC(=O)CCC(=O)O [AMINOLEVULINIC ACID]
0: HepSE_bilirubinemia (Hepatotoxicity [1]) | HepSE_cholecystitis (Hepatotoxicity [2]) | HepSE_cholelithiasis (Hepatotoxicity [3]) | HepSE_cirrhosis (Hepatotoxicity [4]) | HepSE_elevated liver function tests (Hepatotoxicity [5]) | HepSE_hepatic failure (Hepatotoxicity [6]) | HepSE_hepatic necrosis (Hepatotoxicity [7]) | HepSE_hepatitis (Hepatotoxicity [8]) | HepSE_hepatomegaly (Hepatotoxicity [9]) | HepSE_jaundice (Hepatotoxicity [10]) | HepSE_liver disease (Hepatotoxicity [11]) | HepSE_liver fatty (Hepatotoxicity [12]) | HepSE_liver function tests abnormal (Hepatotoxicity [13]) | HepSE_Combined Scores (Hepatotoxicity [14])

CCC1(C)CC(=O)NC1=O (configuration not stated) [ETHOSUXIMIDE]
0: HepSE_bilirubinemia (Hepatotoxicity [1]) | HepSE_cholecystitis (Hepatotoxicity [2]) | HepSE_cholelithiasis (Hepatotoxicity [3]) | HepSE_cirrhosis (Hepatotoxicity [4]) | HepSE_elevated liver function tests (Hepatotoxicity [5]) | HepSE_hepatic failure (Hepatotoxicity [6]) | HepSE_hepatic necrosis (Hepatotoxicity [7]) | HepSE_hepatitis (Hepatotoxicity [8]) | HepSE_hepatomegaly (Hepatotoxicity [9]) | HepSE_jaundice (Hepatotoxicity [10]) | HepSE_liver disease (Hepatotoxicity [11]) | HepSE_liver fatty (Hepatotoxicity [12]) | HepSE_liver function tests abnormal (Hepatotoxicity [13]) | HepSE_Combined Scores (Hepatotoxicity [14])

CNCCCN1c2ccccc2CCc2ccccc21 [DESIPRAMINE]
0: HepSE_bilirubinemia (Hepatotoxicity [1]; Liver) | HepSE_cholecystitis (Hepatotoxicity [2]; Liver) | HepSE_cholelithiasis (Hepatotoxicity [3]; Liver) | HepSE_cirrhosis (Hepatotoxicity [4]; Liver) | HepSE_hepatic failure (Hepatotoxicity [6]; Liver) | HepSE_hepatic necrosis (Hepatotoxicity [7]; Liver) | HepSE_hepatomegaly (Hepatotoxicity [9]; Liver) | HepSE_liver disease (Hepatotoxicity [11]; Liver) | HepSE_liver fatty (Hepatotoxicity [12]; Liver) | HepSE_liver function tests abnormal (Hepatotoxicity [13]; Liver)
1: HepSE_elevated liver function tests (Hepatotoxicity [5]; Liver) | HepSE_hepatitis (Hepatotoxicity [8]; Liver) | HepSE_jaundice (Hepatotoxicity [10]; Liver)
3: HepSE_Combined Scores (Hepatotoxicity [14]; Liver)
